We go through 29 molecules from patent US10231967B2, “Compounds and their use as BACE inhibitors” (ASTRAZENECA AB, priority 2010, dated 2019).

In general, IC50 refers to the midpoint of a concentration-inhibition curve.

One test deals with sAPPβ release in SH-SY5Y cells. Description: sAPPβ release assay. In kind it is cell-based. The settings on record: Homo sapiens, SH-SY5Y, 17 h, compounds incubated 17 h, MSD detection. On the procedure: Thaw cells and seed at a conc. of around 10000 cells/well in DMEM/F-12 with Glutamax, 10% FCS and 1% non-essential amino acids to a 384-well tissue culture treated plate, 100 μL cell susp/well. […] The cell medium was removed, followed by addition of 30 μL compound diluted in DMEM/F-12 with Glutamax, 10% FCS, 1% non-essential amino acids and 1% PeSt to a final conc. of 1% DMSO. The compounds were incubated with the cells for 17 h (overnight) at 37° C., 5% CO2. Meso Scale Discovery (MSD) plates were used for the detection of sAPPβ release. MSD sAPPβ plates were blocked in 1% BSA in Tris wash buffer (40 μL/well) for 1 h on shake at r.t. and washed 1 time in Tris wash buffer (40 μL/well). 20 μL of medium was transferred to the pre-blocked and washed MSD sAPPβ microplates, and the cell plates were further used in an ATP assay to measure cytotoxicity. The MSD plates were incubated with shaking at r.t. for 2 h and the media discarded. 10 μL detection antibody was added (1 nM) per well followed by incubation with shaking at r.t. for 2 h and then discarded. 40 μL Read Buffer was added per well and the plates were read in a SECTOR Imager.
In turn, `CC1=NC2(N=C1N)c1cc(Br)ccc1CC21CCC(F)(F)CC1` (centres unmarked) [Example 27, 6′-Bromo-4,4-difluoro-5″-methyl-3′H-dispiro[cyclohexane-1,2′-indene-1′,2″-imidazol]-4″-amine] yielded an IC50 of 399 nM. The same measure, in the same setting: the same measure for `CC1=NC2(N=C1N)c1cc(-c3cncc(Cl)c3)ccc1CC21CCC(F)(F)CC1` (centres unmarked) [Example 28c, 6′-(5-Chloropyridin-3-yl)-4,4-difluoro-5″-methyl-3′H-dispiro[cyclohexane-1,2′-indene-1′,2″-imidazol]-4″-amine]: 109 nM; for `CC#Cc1cncc(-c2ccc3c(c2)C2(N=C(C)C(N)=N2)C2(CCC(F)(F)CC2)C3)c1` (centres unmarked) [Example 28h, 4,4-Difluoro-5″-methyl-6′-[5-(prop-1-yn-1-yl)pyridin-3-yl]-3′H-dispiro[cyclohexane-1,2′-indene-1′,2″-imidazol]-4″-amine]: 18 nM; for `CC1=N[C@]2(C[C@@H]([C@@H]3CCCOC3)Oc3ccc(-c4cccc(Cl)c4)cc32)N=C1N` [Example 48 Isomer 1, (2S,4R)-6-(3-chlorophenyl)-5′-methyl-2-[(3R)-tetrahydro-2H-pyran-3-yl]-2,3-dihydrospiro[chromene-4,2′-imidazol]-4′-amine]: 20 nM.

For `CC1=N[C@]2(C[C@H]([C@H]3CCCOC3)Oc3ccc(-c4cccc(Cl)c4)cc32)N=C1N` [Example 48 Isomer 4, (2R,4R)-6-(3-chlorophenyl)-5′-methyl-2-[(3 S)-tetrahydro-2H-pyran-3-yl]-1′,2,3,3′-tetrahydrospiro[chromene-4,2′-imidazol]-4′-amine], the half-maximal inhibitory concentration (IC50) was 689 nM. This IC50 lies about 34-fold higher than the previous one. Still for that read-out and setting: the same measure for `CC1=N[C@]2(C[C@H]([C@@H]3CCCOC3)Oc3ccc(-c4cccc(Cl)c4)cc32)N=C1N` [Example 48 Isomer 7, (2R,4R)-6-(3-chlorophenyl)-5′-methyl-2-[(3R)-tetrahydro-2H-pyran-3-yl]-1′,2,3,3′-tetrahydrospiro[chromene-4,2′-imidazol]-4′-amine]: 191 nM; for `CC1=N[C@]2(C[C@@H]([C@H]3CCCOC3)Oc3ccc(-c4cccc(Cl)c4)cc32)N=C1N` [Example 48 Isomer 8, (2S,4R)-6-(3-chlorophenyl)-5′-methyl-2-[(3S)-tetrahydro-2H-pyran-3-yl]-1′,2,3,3′-tetrahydrospiro[chromene-4,2′-imidazol]-4′-amine]: 204 nM. The same measure, in the same setting: with `CC#Cc1cncc(-c2ccc3c(c2)C2(CCC3)N=C(C)C(N)=N2)c1` (centres unmarked) [Example 53, 5-Methyl-7′-(5-(prop-1-ynyl)pyridin-3-yl)-3′,4′-dihydro-2′H-spiro[imidazole-2,1′-naphthalen]-4-amine] the figure was 21 nM. In the case of `CC1=NC2(N=C1N)c1cc(-c3cncc(Cl)c3)ccc1CC21CCC1` (centres unmarked) [Example 55, 6′-(5-Chloropyridin-3-yl)-5″-methyl-3′H-dispiro[cyclobutane-1,2′-indene-1′,2″-imidazol]-4″-amine], the IC50 amounted to 118 nM. Still for that read-out and setting: with `CC#Cc1cncc(-c2ccc3c(c2)C2(N=C(C)C(N)=N2)C2(CCC2)C3)c1` (centres unmarked) [Example 56, 5″-Methyl-6′-[5-(prop-1-yn-1-yl)pyridin-3-yl]-3′H-dispiro[cyclobutane-1,2′-indene-1′,2″-imidazol]-4″-amine] the figure was 24 nM; with `CC1=NC2(N=C1N)c1cc(C#CC3CC3)ccc1CC21CCC1` (centres unmarked) [Example 58, 6′-(Cyclopropylethynyl)-5″-methyl-3′H-dispiro[cyclobutane-1,2′-indene-1′,2″-imidazol]-4″-amine], 219 nM. `CO[C@H]1CC[C@]2(CC1)Cc1ccc(-c3cnc(C)c(Cl)c3)cc1C21N=C(C)C(N)=N1` (some centres unmarked) [Example 60, (1r,4r)-6′-(5-Chloro-6-methylpyridin-3-yl)-4-methoxy-5″-methyl-3′H-dispiro[cyclohexane-1,2′-indene-1′,2″-imidazol]-4″-amine] displayed an IC50 of 8.7 nM.

`CO[C@H]1CC[C@]2(CC1)Cc1ccc(-c3cnc(C)c(Cl)c3)cc1[C@@]21N=C(C)C(N)=N1` [Example 61, (1r,1′R,4R)-6′-(5-Chloro-6-methylpyridin-3-yl)-4-methoxy-5″-methyl-3′H-dispiro[cyclohexane-1,2′-indene-1′,2″-imidazol]-4″-amine] displayed an IC50 of 3.1 nM. Still for that read-out and setting: the same measure for `CO[C@H]1CC[C@]2(CC1)Cc1ccc(-c3cc(Cl)cnc3C)cc1C21N=C(C)C(N)=N1` (some centres unmarked) [Example 62, (1r,4r)-6′-(5-Chloro-2-methylpyridin-3-yl)-4-methoxy-5″-methyl-3′H-dispiro[cyclohexane-1,2′-indene-1′,2″-imidazol]-4″-amine]: 8.6 nM. Same read-out and setting: with `CCC1=NC2(N=C1N)c1cc(-c3cncc(Cl)c3)ccc1C[C@]21CC[C@@H](OC)CC1` (some centres unmarked) [Example 65, (1r,4r)-6′-(5-Chloropyridin-3-yl)-5-ethyl-4-methoxy-3′H-dispiro[cyclohexane-1,2′-indene-1′,2″-imidazol]-4″-amine] the figure was 3.4 nM; with `CC#Cc1cncc(-c2ccc3c(c2)C2(N=C(N)C(CC)=N2)[C@]2(CC[C@H](OC)CC2)C3)c1` (some centres unmarked) [Example 67, (1r,4r)-5″-Ethyl-4-methoxy-6′-[5-(prop-1-yn-1-yl)pyridin-3-yl]-3′H-dispiro[cyclohexane-1,2′-indene-1′,2″-imidazol]-4″-amine], 0.81 nM. Still for that read-out and setting: the same measure for `CCC1=NC2(N=C1N)c1cc(-c3cccc(C#N)c3)ccc1C[C@]21CC[C@@H](OC)CC1` (some centres unmarked) [Example 70, 3-[(1r,4r)-4″-amino-5″-ethyl-4-methoxy-3′H-dispiro[cyclohexane-1,2′-indene-1′,2″-imidazol]-6′-yl]benzonitrile]: 13 nM.

Staying with this test, now noted: Homo sapiens, compounds incubated 17 h, MSD detection.
With `CO[C@H]1CC[C@]2(CC1)Cc1ccc(NC(=O)c3ncc(Cl)cc3C)cc1C21N=C(C)C(N)=N1` (some centres unmarked) [Example 20w, N-[(1r,4r)-4″-Amino-4-methoxy-5″-methyl-3′H-dispiro[cyclohexane-1,2′-indene-1′,2″-imidazol]-6′-yl]-5-chloro-3-methylpyridine-2-carboxamide], the IC50 worked out at 5.7 nM.

On to `CO[C@H]1CC[C@]2(CC1)Cc1ccc(NC(=O)c3ccc(F)cn3)cc1C21N=C(C)C(N)=N1` (some centres unmarked) [Example 20x, N-[(1r,4r)-4″-Amino-4-methoxy-5″-methyl-3′H-dispiro[cyclohexane-1,2′-indene-1′,2″-imidazol]-6′-yl]-5-fluoropyridine-2-carboxamide], for which the IC50 worked out at 29 nM. On the same count and under the same terms, the same measure for `CC#Cc1cc(-c2ccc3c(c2)C2(N=C(C)C(N)=N2)[C@]2(CC[C@H](OC)CC2)C3)ccn1` (some centres unmarked) [Example 20y, (1r,4r)-4-Methoxy-5″-methyl-6′-[2-(prop-1-yn-1-yl)pyridin-4-yl]-3′H-dispiro[cyclohexane-1,2′-indene-1′,2″-imidazol]-4″-amine]: 1.2 nM; for `CC1=NC2(N=C1N)c1cc(-c3cccc(Cl)c3)ccc1CC21CCOCC1` (centres unmarked) [Example 26a, 6′-(3-Chlorophenyl)-5-methyl-2″,3″,5″,6″-tetrahydro-3′H-dispiro[imidazole-2,1′-indene-2′,4″-pyran]-4-amine]: 53 nM; for `CC1=NC2(N=C1N)c1cc(-c3ccc(F)c(Cl)c3)ccc1CC21CCOCC1` (centres unmarked) [Example 26c, 6′-(3-Chloro-4-fluorophenyl)-5-methyl-2″,3″,5″,6″-tetrahydro-3′H-dispiro[imidazole-2,1′-indene-2′,4″-pyran]-4-amine]: 140 nM. Still for that read-out and setting: with `CC1=NC2(N=C1N)c1cc(NC(=O)c3ccc(Cl)cn3)ccc1CC21CCC(F)(F)CC1` (centres unmarked) [Example 28d, N-(4″-Amino-4,4-difluoro-5″-methyl-3′H-dispiro[cyclohexane-1,2′-indene-1′,2″-imidazol]-6′-yl)-5-chloropyridine-2-carboxamide] the figure was 89 nM. On the same count and under the same terms, with `COC1CCC2(CC1)Oc1ccc(Br)cc1C21N=C(C)C(N)=N1` (centres unmarked) [Example 29, 5′-bromo-4-methoxy-5″-methyldispiro[cyclohexane-1,2′-[1]benzofuran-3′,2″-imidazol]-4″-amine] the figure was 848 nM.

For the molecule `COC1CCC2(CC1)Oc1ccc(-c3cncc(Cl)c3)cc1C21N=C(C)C(N)=N1` (centres unmarked) [Example 30d, 5′-(5-Chloropyridin-3-yl)-4-methoxy-5′-methyldispiro[cyclohexane-1,2′-[1]benzofuran-3′,2″-imidazol]-4″-amine], the IC50 amounted to 97 nM. Still for that read-out and setting: with `CC1=NC2(CCCc3ccc(-c4cncc(Cl)c4)cc32)N=C1N` (centres unmarked) [Example 52, 7′-(5-Chloropyridin-3-yl)-5-methyl-3′,4′-dihydro-2′H-spiro[imidazole-2,1′-naphthalen]-4-amine] the figure was 91 nM; with `CC#Cc1cncc(-c2ccc3c(c2)C2(N=C(C)C(N)=N2)[C@]2(CC[C@H](OC)CC2)C3)c1C` (some centres unmarked) [Example 63, (1r,4r)-4-Methoxy-5″-methyl-6′-[4-methyl-5-(prop-1-yn-1-yl)pyridin-3-yl]-3′H-dispiro[cyclohexane-1,2′-indene-1′,2″-imidazol]-4″-amine], 29 nM. The same measure, in the same setting: the same measure for `CCC1=NC2(N=C1N)c1cc(Br)ccc1C[C@]21CC[C@@H](OC)CC1` (some centres unmarked) [Example 64, (1r,4r)-6′-Bromo-5″-ethyl-4-methoxy-3′H-dispiro[cyclohexane-1,2′-indene-1′,2″-imidazol]-4″-amine]: 125 nM; for `CCC1=NC2(N=C1N)c1cc(-c3cncc(C#N)c3)ccc1C[C@]21CC[C@@H](OC)CC1` (some centres unmarked) [Example 69, 5-[(1r,4r)-4″-Amino-5″-ethyl-4-methoxy-3′H-dispiro[cyclohexane-1,2′-indene-1′,2″-imidazol]-6′-yl]pyridine-3-carbonitrile]: 10 nM.
